For seven compounds, pest or weed control results are on record in patent publication US8410302B2, “Methoxyimino compounds and fungicide composition comprising same” (Kyung Nong Corporation, priority 2007, dated 2013).

For test [1], the system named is Pyricularia oryzae Carvara KA301. The test can be described thus: whole plant or invertebrate. The format is in vivo. The settings on record: Pyricularia oryzae, read-out: RCB control value (C.V.).
The test system of test [2] is Erysiphae graminis. The test can be described thus: Fungicidal activity against barley powdery mildew (BPM) disease, control value. As to conditions: 168 h, read-out: BPM control value (C.V.). The format is in vivo.
Test [3] deals with Puccinia recondita. Nature of the test: Fungicidal activity against wheat leaf rust (WLR) disease, control value. The format is in vivo. The settings on record: read-out: WLR control value (C.V.).
Test [4] concerns Botrytis cinerae. The test can be described thus: Fungicidal activity against cucumber gray mold rot (CGM) disease, control value. The format is in vivo. The settings on record: Botrytis, read-out: CGM control value (C.V.).
Test [5] relates to Rhizoctonia solani AG-1. The test can be described thus: Fungicidal activity against rice sheath blight (RSB) disease, control value. The settings on record: Rhizoctonia solani, AG1, in Oryza sativa, read-out: RSB control value (C.V.).
For test [6], the system named is Phytophthora infestans. Nature of the test: whole plant or invertebrate. The format is in vivo. As to conditions: Phytophthora infestans, in Solanum lycopersicum, read-out: TLB control value (C.V.).
Where [7] appears, read: Hordeum vulgare, barley powdery mildew.

Molecules are shown by their SMILES. Where two headings read alike, the source gives them in different places.

Turning to `CO/N=C(/C(=O)OC)c1ccccc1COc1ccc(C=C(Cl)Br)cc1` [Example 17, methyl-(2E)-2-(2-((4-(2-bromo-2-chlorovinyl)phenoxy)methyl)phenyl)-2-methoxyiminoacetate], the pest or weed control at 2 ppm in test [1] is 70%; in test [2] (setting [7]) it was 35%; in test [3] (wheat leaf rust), 100%. Moreover, the pest or weed control at 10 ppm in test [1] stood at 100%; in test [2] (setting [7]) it was 90%; in test [3] (wheat leaf rust), 100%; in test [6], 10%. Moreover, the pest or weed control at 50 ppm is 100% in test [1], 93% in test [2] (setting [7]), 100% in test [3] (wheat leaf rust) and 90% in test [6]. The pest or weed control at 100 ppm in test [1] worked out at 100%; in test [2] (setting [7]) it was 95%; in test [3] (wheat leaf rust), 100%; in test [4] (cucumber gray mold rot), 50%; in test [5] it was 90%; in test [6] it was 100%.

With `CO/N=C(/C(=O)OC)c1ccccc1COc1cc(C=C(Br)Br)ccc1OC` [Example 71, methyl-(E)-2-(2-((5-(2,2-dibromovinyl)-2-methoxyphenoxy)methyl)phenyl)-2-methoxyiminoacetate], the pest or weed control at 2 ppm came to 30% in test [1]; 95% in test [2]; 95% in test [3] (Puccinia recondita); 65% in test [5]; 70% in test [6]. The pest or weed control at 10 ppm in test [1] was found to be 90%; in test [2] it was 100%; in test [3] (Puccinia recondita) it was 100%; in test [5], 98%; in test [6], 90%. For the same compound, the pest or weed control at 50 ppm in test [1] came out at 100%; in test [2], 100%; in test [3] (Puccinia recondita), 100%; in test [5] it was 100%; in test [6] it was 98%. Besides, the pest or weed control at 100 ppm in test [1] is 100%; in test [2], 100%; in test [3] (Puccinia recondita) it was 100%; in test [4], 65%; in test [5], 100%; in test [6], 100%.

In the case of `CNC(=O)/C(=N/OC)c1ccccc1COc1ccc(C=C(Br)Br)c(Cl)c1` [Example 82, (E)-2-(2-((4-(2,2-dibromovinyl)-3-chlorophenoxy)methyl)phenyl)-2-methoxyimino-N-methylacetamide], the pest or weed control at 2 ppm in test [1] was determined as 70%; in test [2], 5%; in test [3] (Puccinia recondita) it was 98%; in test [5], 70%. Also, the pest or weed control at 10 ppm was 90% in test [1]; 90% in test [2]; 100% in test [3] (Puccinia recondita); 90% in test [5]; 30% in test [6]. Moreover, the pest or weed control at 50 ppm is 100% in test [1]; 95% in test [2]; 100% in test [3] (Puccinia recondita); 99% in test [5]; 90% in test [6]. Moreover, the pest or weed control at 100 ppm worked out at 100% in test [1]; 95% in test [2]; 100% in test [3] (Puccinia recondita); 0% in test [4]; 100% in test [5]; 90% in test [6].

As to `CNC(=O)/C(=N/OC)c1ccccc1COc1cccc(C=C(Br)Br)c1` [Example 6, (E)-2-(2-((3-(2,2-dibromovinyl)phenoxy)methyl)phenyl)-2-methoxyimino-N-methylacetamide], the pest or weed control at 2 ppm is 98% in test [1], 0% in test [2] (setting [7]), 0% in test [3] (wheat leaf rust) and 30% in test [5]. The pest or weed control at 10 ppm in test [1] amounted to 100%; in test [2] (setting [7]), 30%; in test [3] (wheat leaf rust), 35%; in test [5], 90%. Also, the pest or weed control at 50 ppm in test [1] was 100%; in test [2] (setting [7]) it was 90%; in test [3] (wheat leaf rust) it was 95%; in test [5] it was 100%. Moreover, the pest or weed control at 100 ppm in test [1] is 100%; in test [2] (setting [7]), 97%; in test [3] (wheat leaf rust), 98%; in test [4] (cucumber gray mold rot), 60%; in test [5] it was 100%; in test [6] it was 50%.

Consider `CNC(=O)/C(=N/OC)c1ccccc1COc1ccc(C=C(Br)Br)cc1C` [Example 66, (E)-2-(2-((4-(2,2-dibromovinyl)-2-methylphenoxy)methyl)phenyl)-2-methoxyimino-N-methylacetamide], for which the pest or weed control at 2 ppm was 60% in test [1]; 97% in test [2]; 95% in test [3] (Puccinia recondita); 65% in test [5]; 75% in test [6]. In addition, the pest or weed control at 10 ppm amounted to 90% in test [1]; 100% in test [2]; 100% in test [3] (Puccinia recondita); 98% in test [5]; 90% in test [6]. Moreover, the pest or weed control at 50 ppm was determined as 100% in test [1]; 100% in test [2]; 100% in test [3] (Puccinia recondita); 100% in test [5]; 98% in test [6]. For the same compound, the pest or weed control at 100 ppm in test [1] was found to be 100%; in test [2], 100%; in test [3] (Puccinia recondita), 100%; in test [4], 45%; in test [5], 100%; in test [6], 100%.

With `CO/N=C(/C(=O)OC)c1ccccc1COc1ccc(C=C(Cl)Cl)cc1Cl` [Example 39, methyl-(E)-2-(2-((2-chloro-4-(2,2-dichlorovinyl)phenoxy)methyl)phenyl)-2-methoxyiminoacetate], the pest or weed control at 2 ppm in test [1], in test [2] (setting [7]), in test [3] (wheat leaf rust), in test [5] and in test [6] was 100% throughout. The pest or weed control at 10 ppm in test [1], in test [2] (setting [7]), in test [3] (wheat leaf rust), in test [5] and in test [6] was 100% each time. For the same compound, the pest or weed control at 50 ppm in test [1], in test [2] (setting [7]), in test [3] (wheat leaf rust), in test [5] and in test [6] was 100% each time. The pest or weed control at 100 ppm amounted to 100% in test [1]; 100% in test [2] (setting [7]); 100% in test [3] (wheat leaf rust); 75% in test [4] (cucumber gray mold rot); 100% in test [5]; 100% in test [6].

As to `CO/N=C(/C(=O)OC)c1ccccc1COc1ccc(C=C(Cl)Cl)cc1C` [Example 41, methyl-(E)-2-(2-((4-(2,2-dichlorovinyl)-2-methylphenoxy)methyl)phenyl)-2-methoxyiminoacetate], the pest or weed control at 2 ppm in test [1], in test [2] (setting [7]), in test [3] (wheat leaf rust), in test [5] and in test [6] was 100% in each case. Moreover, the pest or weed control at 10 ppm in test [1], in test [2] (setting [7]), in test [3] (wheat leaf rust), in test [5] and in test [6] was 100% each time. The pest or weed control at 50 ppm in test [1] is 100%; in test [2] (setting [7]) it was 100%; in test [3] (wheat leaf rust), 100%; in test [4] (50 ppm, cucumber gray mold rot), 75%; in test [5], 100%; in test [6] it was 100%. Besides, the pest or weed control at 100 ppm was determined as 100% in test [1]; 100% in test [2] (setting [7]); 100% in test [3] (wheat leaf rust); 90% in test [4] (cucumber gray mold rot); 100% in test [5]; 100% in test [6].
